The text below walks through data of patent publication US8188050B2, “Pharmaceutical and/or cosmetic composition containing peptides” (ISP Investments Inc., priority 2006, dated 2012).

The assay concerns Biopsies of human skin. As to the kind of experiment: Ex vivo study of the effect of the peptide on the synthesis of melanin (Fontana-Masson staining of skin biopsies). The format is cell-based. The following applies: two applications daily, peptide 1% starting with a 50-ppm solution, 48 hours. On the procedure:
The aim of this ex vivo study is to highlight the increase in melanization produced by the peptides according to the invention.
Protocol: Biopsies of human skin 6 mm in diameter are held in an ex vivo culture in the presence of a specific medium (1 g/L DMEM, Ham's F-12, SVF, and antibiotics) on inserts deposited on 6-well plates. […] The duration of the treatment is 48 hours. The biopsies are subsequently fixed in 9% formaldehyde and NaCl (150 mM) for 10 hours and then enclosed in paraffin. Thin-sections of the skin 3 μm thick are then made, and the melanin is specifically stained by the Fontana-Masson technique.

Entries after “also recorded” stand apart in the source; their conditions may differ.

As to “Thr-Leu-Leu-Ala (TLLA) [SEQ ID No. 3, peptide fragment of the protein SLC24A5]”, the “Location/distribution of melanin in the epidermis” value is listed as “located in the basal layer but is also transported into the supra-basal layers; also recorded: stimulates the entire process of melanin distribution in the epidermis” and the “Synthesis of melanin by the melanocytes (conclusion)” value is given as “strong increase in the synthesis of melanin”. Further, for the setting “vs. untreated sections”, the “Intensity of melanin coloration of skin thin-sections (Fontana-Masson staining)” value is on record as “coloration of clearly increased intensity”.
